What is called IC50 is the midpoint of a concentration-inhibition curve. For orientation: EC50 means the concentration that produces a half-maximal response.

A value given as a limit tells only on which side of the number the result lay.

In patent US20100075965A1, “PI3 KINASE INHIBITORS AND METHODS OF THEIR USE” (Novartis AG, priority 2006, published 2010) one finds IC50 and EC50 data, which are given here for 24 compounds.

One experiment has as its target PI3 K Alpha (Homo sapiens, UniProt P42336). Put plainly: PI3 kinase phosphorylation assays (homogenous solution phase, one step solid phase, ATP depletion/KinaseGlo). The note with it: read-out: PI3K Alpha IC50. In kind it is biochemical.
The subject of the next experiment is A2780 cells. In words: Viability assay in A2780 (Cell Titer Glo). In kind it is cell-based, human. The note with it: Homo sapiens; A2780 cells; read-out: A2780 Cell prolif. EC50. In a few lines: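 EC50 values come from Cell Titer Glo luminescence after 72 hrs of compound exposure at 37° C, run in duplicate. A2780 cells were plated at 1,000 per well in DMEM with 10% FBS and dosed with 3-fold serial dilutions.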
On the technique in general: In ATP-based viability assays light output follows the ATP content of the culture.

Chain of PI3 K Alpha (P42336 whole entry): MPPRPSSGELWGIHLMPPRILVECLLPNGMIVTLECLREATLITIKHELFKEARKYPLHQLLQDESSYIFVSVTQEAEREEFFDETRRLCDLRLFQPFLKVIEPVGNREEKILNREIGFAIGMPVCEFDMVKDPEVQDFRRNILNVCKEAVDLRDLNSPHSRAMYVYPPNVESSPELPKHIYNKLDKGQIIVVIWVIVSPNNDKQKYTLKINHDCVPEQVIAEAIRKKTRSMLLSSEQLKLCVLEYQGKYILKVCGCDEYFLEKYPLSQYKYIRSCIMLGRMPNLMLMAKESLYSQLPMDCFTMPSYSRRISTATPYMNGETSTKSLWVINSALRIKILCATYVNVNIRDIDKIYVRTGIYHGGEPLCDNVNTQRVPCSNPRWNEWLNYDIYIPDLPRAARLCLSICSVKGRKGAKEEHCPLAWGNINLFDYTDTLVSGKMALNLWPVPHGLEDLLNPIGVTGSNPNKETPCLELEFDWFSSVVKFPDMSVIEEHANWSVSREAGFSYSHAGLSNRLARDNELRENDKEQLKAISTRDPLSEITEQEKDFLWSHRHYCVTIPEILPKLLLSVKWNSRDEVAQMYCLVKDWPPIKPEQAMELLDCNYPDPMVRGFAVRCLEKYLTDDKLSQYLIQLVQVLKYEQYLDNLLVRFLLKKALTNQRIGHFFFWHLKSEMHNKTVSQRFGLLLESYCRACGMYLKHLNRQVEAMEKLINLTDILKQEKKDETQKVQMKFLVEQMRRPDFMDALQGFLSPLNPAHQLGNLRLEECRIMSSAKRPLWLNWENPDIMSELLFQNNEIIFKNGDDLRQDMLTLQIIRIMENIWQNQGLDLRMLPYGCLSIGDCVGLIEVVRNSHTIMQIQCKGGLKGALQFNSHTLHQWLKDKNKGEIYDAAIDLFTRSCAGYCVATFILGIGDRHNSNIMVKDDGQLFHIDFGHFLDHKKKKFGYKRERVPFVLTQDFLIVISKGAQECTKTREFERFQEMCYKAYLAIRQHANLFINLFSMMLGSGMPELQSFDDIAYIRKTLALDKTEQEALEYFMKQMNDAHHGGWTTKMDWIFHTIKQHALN
Chain of PI3 K Alpha (P27986 whole entry partner): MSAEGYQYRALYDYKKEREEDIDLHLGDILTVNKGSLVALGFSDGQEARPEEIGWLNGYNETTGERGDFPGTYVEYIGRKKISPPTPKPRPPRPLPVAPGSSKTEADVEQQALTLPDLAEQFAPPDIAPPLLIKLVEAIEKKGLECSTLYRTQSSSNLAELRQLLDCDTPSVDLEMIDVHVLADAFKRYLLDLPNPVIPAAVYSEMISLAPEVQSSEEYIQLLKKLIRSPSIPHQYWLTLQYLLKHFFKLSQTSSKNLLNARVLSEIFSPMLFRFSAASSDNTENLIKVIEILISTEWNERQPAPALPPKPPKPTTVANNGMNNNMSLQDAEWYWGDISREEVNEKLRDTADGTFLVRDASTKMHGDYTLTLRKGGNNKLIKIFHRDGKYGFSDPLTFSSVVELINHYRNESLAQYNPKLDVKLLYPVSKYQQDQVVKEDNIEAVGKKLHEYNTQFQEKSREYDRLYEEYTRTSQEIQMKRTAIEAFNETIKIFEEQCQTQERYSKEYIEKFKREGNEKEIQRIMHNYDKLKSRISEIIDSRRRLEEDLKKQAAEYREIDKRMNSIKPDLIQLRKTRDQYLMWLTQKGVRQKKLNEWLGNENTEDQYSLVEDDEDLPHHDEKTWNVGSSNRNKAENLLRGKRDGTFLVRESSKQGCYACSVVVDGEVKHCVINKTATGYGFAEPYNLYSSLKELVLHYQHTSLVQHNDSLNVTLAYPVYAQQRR

For the compound `CC(=O)Nc1cn2cc(-c3cnc(N)c(C(=O)NCCNS(C)(=O)=O)n3)ccc2n1` [Example 158, 6-(2-acetamido-imidazo[1,2-a]pyridin-6-yl)-3-amino-N-(2-(methylsulfon amido)ethyl) pyrazine-2-carboxamide], the IC50 at PI3 K Alpha was less than 1 µM. Moreover, the EC50 with A2780 cells was less than 25 µM.

As for `CC(=O)Nc1cn2c(C)c(-c3cnc(N)c(OCC(F)(F)F)n3)ccc2n1` [Example 112, N-(6-(5-amino-6-(2,2,2-trifluoroethoxy)pyrazin-2-yl)-5-methylimidazo [1,2-a]pyridin-2-yl)acetamide], the IC50 on PI3 K Alpha was less than 1 µM. Further, in the experiment with A2780 cells, the concentration giving a half-maximal response (EC50) was less than 10 µM.

Consider `Nc1ncc(-c2ccc3nc(NC(=O)[C@H]4CCCN4)cn3n2)cc1C(F)(F)F` [Example 178, (R)-N-(6-(6-amino-5-(trifluoromethyl)pyridin-3-yl)imidazo[1,2-b]pyridazin-2-yl)pyrrolidine-2-carboxamide], for which the IC50 on PI3 K Alpha is less than 1 µM. The EC50 with A2780 cells was less than 25 µM.

As to `Nc1ncc(-c2ccc3nc(NC(=O)N4CCCC4C(F)(F)F)cn3c2)cc1C(F)(F)F` (stereo not drawn) [Example 191], the IC50 on PI3 K Alpha is less than 1 µM. Besides, in the experiment with A2780 cells, the EC50 is less than 10 µM.

Consider `COc1cc(-c2ccc3nc(NC(C)=O)cn3n2)c(C)nc1N` [Example 43, N-(6-(6-amino-5-methoxy-2-methylpyridin-3-yl)imidazo[1,2-b]pyridazin-2-yl)acetamide], for which, on PI3 K Alpha, the IC50 is less than 10 µM. In addition, the EC50 in the experiment on A2780 cells is less than 25 µM.

For the compound `CC(=O)Nc1cn2cc(-c3cnc(N)c(Br)n3)ccc2n1` [Example 164, N-(6-(5-amino-6-bromopyrazin-2-yl)imidazo[1,2-a]pyridin-2-yl)acetamide], the IC50 at PI3 K Alpha is less than 1 µM. Besides, in the experiment with A2780 cells, the EC50 is less than 25 µM.

Regarding `CC(=O)N1CCC[C@H]1C(=O)Nc1cn2cc(-c3cnc(N)c(C(F)(F)F)c3)ccc2n1` [Example 172, (S)-1-acetyl-N-(6-(6-amino-5-(trifluoromethyl)pyridin-3-yl)imidazo[1,2-a]pyridin-2-yl)pyrrolidine-2-carboxamide], the IC50 at PI3 K Alpha was less than 1 µM. In addition, the concentration giving a half-maximal response (EC50) with A2780 cells is less than 25 µM.

As to `C/C=C\c1c(NC(C)=O)nc2ccc(-c3cnc(N)c(C(F)(F)F)c3)cn12` [Example 156, (Z)-N-(6-(6-amino-5-(trifluoromethyl)pyridin-3-yl)-3-(prop-1-enyl)imidazo [1,2-a]pyridin-2-yl)acetamide], at PI3 K Alpha, the half-maximal inhibitory concentration (IC50) is less than 1 µM. Moreover, in the experiment with A2780 cells, the 50% effective concentration (EC50) was less than 25 µM.

Regarding `Nc1ncc(-c2ccc3nc(NC(=O)C4CNC4)cn3c2)cc1C(F)(F)F` [Example 256, N-(6-(6-amino-5-(trifluoromethyl)pyridin-3-yl)imidazo[1,2-a]pyridin-2-yl)azetidine-3-carboxamide], the IC50 on PI3 K Alpha was less than 1 µM. The EC50 in the experiment with A2780 cells was less than 10 µM.

For `CN(CC(=O)Nc1cn2cc(-c3cnc(N)c(C(F)(F)F)c3)ccc2n1)C(=O)OC(C)(C)C` [Example 244, tert-butyl 2-(6-(6-amino-5-(trifluoromethyl)pyridin-3-yl)imidazo[1,2-a]pyridin-2-ylamino)-2-oxoethyl(methyl) carbamate], the IC50 on PI3 K Alpha is less than 1 µM. Further, in the experiment with A2780 cells, the EC50 is less than 10 µM.

`Nc1ncc(-c2ccc3nc(NC(=O)CCCn4ccnc4)cn3c2)cc1C(F)(F)F` [Example 238, N-(6-(6-amino-5-(trifluoromethyl)pyridin-3-yl)imidazo[1,2-a]pyridin-2-yl)-4-(1H-imidazol-1-yl)butanamide]: the concentration for half-maximal inhibition (IC50) on PI3 K Alpha was less than 1 µM. For the same compound, in the experiment on A2780 cells, the EC50 was less than 10 µM.

Regarding `CC(=O)Nc1cn2cc(-c3cnc(N)c(Oc4ccc(N5CCN(C(C)=O)CC5)cc4)n3)ccc2n1` [Example 222, N-(6-(6-(4-(4-acetylpiperazin-1-yl)phenoxy)-5-aminopyrazin-2-yl)imidazo[1,2-a]pyridin-2-yl)acetamide], the IC50 on PI3 K Alpha is less than 1 µM. In addition, in the experiment with A2780 cells, the EC50 is less than 10 µM.

Take `CC(=O)Nc1ccc(-c2c(NC(C)=O)nc3ccc(-c4cnc(N)c(C(F)(F)F)c4)cn23)cc1` [Example 162]: at PI3 K Alpha, the concentration for half-maximal inhibition (IC50) was less than 1 µM. In addition, the concentration for a half-maximal effect (EC50) in the experiment on A2780 cells is less than 25 µM.

Regarding `C/C=C/C(=O)Nc1cn2cc(-c3cnc(N)c(C(F)(F)F)c3)ccc2n1` [Example 252, (E)-N-(6-(6-amino-5-(trifluoromethyl)pyridin-3-yl)imidazo[1,2-a]pyridin-2-yl)but-2-enamide], the IC50 on PI3 K Alpha was less than 1 µM. Besides, the EC50 with A2780 cells was less than 10 µM.

For the compound `CC(=O)Nc1nc2ccc(-c3cnc(N)c(C(F)(F)F)c3)cn2c1C#CCNC(=O)OC(C)(C)C` [Example 247, tert-butyl 3-(2-acetamido-6-(6-amino-5-(trifluoromethyl)pyridin-3-yl)imidazo[1,2-a]pyridin-3-yl)prop-2-ynylcarbamate], the IC50 on PI3 K Alpha is less than 1 µM. Moreover, in the experiment with A2780 cells, the EC50 is less than 10 µM.

Take `CC(=O)Nc1cn2cc(-c3ccc(N)nc3C)ccc2n1` [Example 144, N-(6-(6-amino-2-methylpyridin-3-yl)imidazo[1,2-a]pyridin-2-yl)acetamide]: the IC50 at PI3 K Alpha is less than 1 µM. For the same compound, in the experiment with A2780 cells, the EC50 is less than 25 µM.

Regarding `CC(C)C(=O)Nc1cn2cc(-c3cnc(N)c(OCC(F)(F)F)n3)ccc2n1` [Example 230, N-(6-(5-amino-6-(2,2,2-trifluoroethoxy)pyrazin-2-yl)imidazo[1,2-a]pyridin-2-yl)isobutyramide], at PI3 K Alpha, the 50% inhibitory concentration (IC50) was less than 1 µM. The EC50 in the experiment with A2780 cells was less than 10 µM.

In the case of `CC(C)(C)OC(=O)N1CCC[C@@H]1C(=O)Nc1cn2nc(-c3cnc(N)c(C(F)(F)F)c3)ccc2n1` [Example 179, (R)-tert-butyl amino-5-(trifluoromethyl) pyridin-3-yl)imidazo[1,2-b]pyridazin-2-ylcarbamoyl) pyrrolidine-1-carboxylate], on PI3 K Alpha, the IC50 is less than 1 µM. The EC50 in the experiment with A2780 cells is less than 25 µM.

Turning to `CC(=O)Nc1cn2nc(-c3cnc(N)cn3)ccc2n1` [Example 170], the IC50 at PI3 K Alpha is less than 1 µM. Further, in the experiment on A2780 cells, the concentration for a half-maximal effect (EC50) is less than 25 µM.

For the compound `CC(=O)Nc1cn2cc(-c3cnc(N)c(C(=O)N4CCN(C(=O)OC(C)(C)C)CC4)c3)ccc2n1` [Example 152, tert-butyl 4-(5-(2-acetamido-imidazo[1,2-a]pyridin-6-yl)-2-aminonicotinoyl) piperazine-1-carboxylate], on PI3 K Alpha, the IC50 is less than 1 µM. In addition, the EC50 with A2780 cells is less than 25 µM.

Take `COCCOc1nc(-c2ccc3nc(NC(=O)CN4CCCCC4)cn3c2)cnc1N` [Example 202, N-(6-(5-amino-6-(2-methoxyethoxy)pyrazin-2-yl)imidazo[1,2-a]pyridin-2-yl)-2-(piperidin-1-yl)acetamide]: at PI3 K Alpha, the IC50 was less than 1 µM. For the same compound, in the experiment on A2780 cells, the EC50 is less than 10 µM.

Regarding `CNC(=O)[C@@H]1CCN1C(=O)Nc1cn2cc(-c3cnc(N)c(C(F)(F)F)c3)ccc2n1` [Example 36, (S)-N1-(6-(6-amino-5-(trifluoromethyl)pyridin-3-yl)imidazo[1,2-a]pyridin-2-yl)-N2-methylazetidine-1,2-dicarboxamide], the IC50 at PI3 K Alpha was less than 25 µM. Moreover, the EC50 in the experiment with A2780 cells is less than 25 µM.

For the compound `Nc1ncc(-c2ccc3nc(NC(=O)C4CCN4)cn3n2)cc1C(F)(F)F` (stereo not drawn) [Example 189], the half-maximal inhibitory concentration (IC50) on PI3 K Alpha is less than 1 µM. Besides, the EC50 in the experiment with A2780 cells is less than 10 µM.

Turning to `Nc1ncc(-c2ccc3nc(NC(=O)CO[C@@H]4CCNC4)cn3c2)cc1C(F)(F)F` [Example 214, (R)-N-(6-(6-amino-5-(trifluoromethyl)pyridin-3-yl)imidazo[1,2-a]pyridin-2-yl)-2-(pyrrolidin-3-yloxy)acetamide], the IC50 at PI3 K Alpha was less than 1 µM. Besides, the EC50 with A2780 cells was less than 10 µM.
